Results taken from patent US8962600B2, “Neuroprotective compounds and their use” (The Medical College of Wisconsin, Inc., priority 2009, dated 2015).

System: 4-hydroxynonenol (4-HNE)
Experiment: 4-hydroxynonenol expression in substantia nigra, Western blot and immunostaining
Assay type: in vivo, C57BL/6 mice
Experimental: For checking inflammatory and oxidative stress markers, mice were gavaged diapocynin (300 mg/kg dose) 1 day before MPTP treatment (pre-treatment) and continued for another 4 days of co-treatment with MPTP. In the sub-acute MPTP regimen, MPTP (25 mg/kg) was injected intraperitoneally once per day from day 2 to day 7. Control mice received saline at the same dosage.
Four days after MPTP treatment, mice were perfused with 4% paraformaldehyde (PFA) and post-fixed with PFA and 30% sucrose, respectively. Next, fixed brains were cut into 30 μm sections and kept in 30% sucrose-ethylene glycol solutions at −20° C. On the day of staining, sections were rinsed with phosphate-buffered saline (PBS) and incubated with different primary antibodies, including anti-IBA-1 (DAKO, Carpinteria, Calif.), anti-GFAP (Millipore, Billerica, Mass.), anti-iNOS (Santa Cruz Biotechnology, Santa Cruz, Calif.), anti-3NT (Millipore), anti-4HNE (R&D Systems, Minneapolis, Minn.) and anti-gp91phox (Santa Cruz Biotechnology) for overnight at 4° C. Appropriate secondary antibodies (Alexa Fluor 488, 594, or 555 from Invitrogen, Carlsbad, Calif.) were used followed by incubation with 10 μg/ml Hoechst 33342 for 5 min at room temperature to stain the nucleus. Sections were viewed under a Nikon inverted fluorescence microscope (model TE-2000U; Nikon, Tokyo, Japan). […]

## COc1cc(C(C)=O)cc(-c2cc(C(C)=O)cc(OC)c2O)c1O [diapocynin]
Diapocynin 300 mg/kg gavage, MPTP 25 mg/kg i.p., Western blot and immunostaining
  MPTP-induced increase in expression of 4-HNE in substantia nigra: attenuated
double-label immunostaining, MPTP- and diapocynin-treated mice
  colocalized cells of TH and 4-HNE in substantia nigra: very few colocalized cells
